Patent publication US20030158089A1, “Administrative agents via the SMVT transporter” (priority 2002, published 2003)
Read-outs that look alike come from different tables or passages of the source.

Experiments:
[1] = molecular target: T1, human SMVT (SLC5A6) (Homo sapiens, UniProt Q9Y289); assay: Two-electrode voltage-clamp transport currents in SMVT-expressing Xenopus oocytes; format: cell-based; settings: for Vmax as a % of Biotin Vmax: % max response relative to biotin, transporter-expressing oocytes, test compound 0.5 mM
T1 construct: The complete open reading frame of human SMVT (SLC5A6) was amplified; expressed in transfected cells; host or cells: Xenopus oocytes injected with 10-30 ng cRNA transcribed from the pMO plasmid
T1 sequence (Q9Y289 1-635): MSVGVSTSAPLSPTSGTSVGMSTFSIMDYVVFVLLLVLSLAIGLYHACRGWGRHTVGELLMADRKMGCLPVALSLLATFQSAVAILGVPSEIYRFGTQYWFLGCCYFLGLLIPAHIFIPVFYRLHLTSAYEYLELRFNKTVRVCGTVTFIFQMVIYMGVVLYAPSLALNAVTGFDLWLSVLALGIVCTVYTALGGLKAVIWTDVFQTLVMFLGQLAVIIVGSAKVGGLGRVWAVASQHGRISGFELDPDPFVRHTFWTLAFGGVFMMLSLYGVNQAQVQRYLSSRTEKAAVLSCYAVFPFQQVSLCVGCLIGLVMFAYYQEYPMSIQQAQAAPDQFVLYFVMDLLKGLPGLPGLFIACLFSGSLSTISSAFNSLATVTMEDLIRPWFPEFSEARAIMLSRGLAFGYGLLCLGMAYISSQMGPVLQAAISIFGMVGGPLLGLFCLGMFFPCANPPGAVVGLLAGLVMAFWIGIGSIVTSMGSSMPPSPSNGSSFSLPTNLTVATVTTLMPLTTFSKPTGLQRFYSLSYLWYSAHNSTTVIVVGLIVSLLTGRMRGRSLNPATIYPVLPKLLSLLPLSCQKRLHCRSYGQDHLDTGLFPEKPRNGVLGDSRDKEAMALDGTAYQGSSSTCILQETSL
Text: “Vmax” and “KM” of a compound for a transporter (e.g., the SMVT transporter) are defined in accordance with convention. Vmax is the number of molecules of compound transported per unit time at saturating concentration of the compound. KM is the concentration of the compound at which the compound is transported at half of Vmax. In general, a high value Of Vmax is desirable for a substrate of a transporter. A low value of KM is desirable for transport of low concentrations of a compound, and a high value of KM is desirable for transport of high concentrations of a compound. Vmax is affected both by the intrinsic turnover rate of a transporter (molecules/transporter protein) and transporter density in plasma membrane that depends on expression level. For these reasons, the intrinsic capacity of a compound to be transported by a particular transporter is usually expressed as the ratio (or percent) of the Vmax of the compound/Vmax of a control compound known to be a substrate for the transporter.
cRNA for oocyte expression was prepared by linearization of plasmid cDNA and in vitro transcription using T7 polymerase (Epicentre Ampliscribe kit). Xenopus oocytes were prepared and maintained as previously described (Collins et al., PNAS […]:5456-5460 (1997)) and injected with 10-30 ng RNA. Transport currents were measured 2-6 days later using two-electrode voltage-clamp (Axon Instruments). All experiments were performed using a modified oocyte ringers solution (90 mM NaCl, 2 mM KCl, 1.8 mM CaCl2, 1 mM MgCl2, and 10 mM NaHEPES, pH 7.4; in Na^+-free solutions […] choline chloride was substituted for NaCl). The membrane potential of oocytes was held at −60 mV and current traces acquired using PowerLab software (ADInstruments). Full 7-concentration dose-responses were performed for each compound. […] Half-maximal concentrations were calculated using non-linear regression curve fitting software (Prism) with the Hill co-efficient fixed to 1. To ensure that currents were specific for the over-expressed transporter, all compounds were tested against uninjected oocytes.

[2] = molecular target: T2, hSMVT (Homo sapiens, UniProt Q9Y289); assay: Radiolabeled competition assay in SMVT-expressing CHO cells; format: cell-based
T2 sequence (Q9Y289 1-635): T1 sequence (Q9Y289 1-635)
Text: The complete open reading frame of human SMVT (SLC5A6) was amplified from human cDNA prepared from intestinal mRNA. Gene-specific oligonucleotide primers were designed against Genbank sequences (NM-021095). Amplified PCR products were cloned into a modified version of the mammalian expression vector pcDNA3 (termed pMO) that was engineered to contain the 5′ and 3′ untranslated regions from the Xenopus beta-globin gene. All clones were completely sequenced and tested for function by transient transfection in HEK293 cells.
Stable clones of CHOK1 cells were obtained by electroporation, selection in G418, and single cell sorting using FACS ([…] cell sorting, Cytomation). Stable clones expressing SMVT were identified by enhanced uptake of radiolabeled substrates. For cell uptake studies, stable CHOK1 clones were seeded into polylysine coated 96-well microtiter plates and grown for 2-3 days. Cells were incubated with experimental solutions (combinations of radiolabeled and unlabeled compounds) for 30 minutes at room temperature, washed four times, and lysed in scintillation solution. Accumulation of radiolabeled molecules was measured in a microtiter scintillation plate reader (Perkin Elmer). Inhibition constants (IC50s) were calculated using curve-fitting software (Prism).

[3] = rat, 2 μM, pH 7.4
Procedure: (§1) The stability of conjugates were evaluated in one or more in vitro systems using a variety of tissue preparations following methods known in the art. […] Each preparation was incubated with test compound at 37° C. for one hour. Aliquots (50 μL) were removed at 0, 30, and 60 min and quenched with 0.1% trifluoroacetic acid in acetonitrile. Samples were then centrifuged and analyzed by LC/MS/MS.

[4] = rat, 2 μM
Procedure: as §1

[5] = Caco-2 homogenate S9 stability; format: in vitro ADME; settings: Caco-2 S9 (0.5 mg protein per mL), 37° C, 5 μM
Procedure: Caco-2 Homogenate S9 Stability: Caco-2 cells were grown for 21 days prior to harvesting. Culture medium was removed and cell monolayers were rinsed and scraped off into ice-cold 10 mM sodium phosphate/0.15 M potassium chloride, pH 7.4. Cells were lysed by sonication at 4° C. using a probe sonicator. Lysed cells were then transferred into 1.5 mL centrifuge vials and centrifuged at 9000 g for 20 min at 4° C. The resulting supernatant (Caco-2 cell homogenate S9 fraction) was aliquoted into 0.5 mL vials and stored at −80° C. until used.
For stability studies, conjugate (5 μM) was incubated in Caco-2 homogenate S9 fraction (0.5 mg protein per mL) for 60 min at 37° C. Concentrations of intact conjugate and released drug were determined at zero time and 60 minutes using LC/MS/MS.

[6] = In vitro cleavage of conjugate in human liver S9; settings: Human Liver S9 (0.5 mg/mL), NADPH, 37° C, 2.0 μM
Procedure: as §1

[7] = In vitro cleavage of conjugate in rat plasma; settings: 37° C, 2.0 μM
Procedure: as §1

[8] = In vitro cleavage of conjugate in rat liver S9; settings: Rat Liver S9 (0.5 mg/mL), NADPH, 37° C, 2.0 μM
Procedure: as §1

[9] = tested on: Pancreatin; assay: Pancreatin stability; format: in vitro ADME, porcine; settings: 1 % (w/v) pancreatin, pH 7.5, 37° C, 5 μM
Procedure: Pancreatin Stability: Stability studies were conducted by incubating conjugate (5 μM) with 1 % (w/v) pancreatin (Sigma, P-1625, from porcine pancreas) in 0.025 M Tris buffer containing 0.5 M NaCl (pH 7.5) at 37° C. for 60 min. The reaction was stopped by addition of 2 volumes of methanol. After centrifugation at 14,000 rpm for 10 min, the supernatant was removed. and analyzed by LC/MS/MS.

[10] = In vitro cleavage of conjugate in human plasma; settings: 37° C, 2.0 μM
Procedure: as §1

[11] = tested on: human or rat SMVT; settings: voltage-clamped Xenopus oocytes; cited from earlier work
[12] = in vivo; settings: male, Sprague-Dawley, rat, po
Procedure: Test compounds were administered as an intravenous bolus injection or by oral gavage to groups of four to six adult male Sprague-Dawley rats (weight approx 250 g) as solutions in water or water/ethanol (90:10). The doses ranged between 10 and 200 mg per kg body weight (i.e. 0.04-0.8 mmole/kg). Animals were fasted overnight before the study and for 4 hours post-dosing. Blood samples (1.0 mL) were obtained via a jugular vein cannula at intervals over 24 hours after oral dosing. Blood was processed immediately for plasma and plasma was frozen at −80° C. until analyzed.
Concentrations of test compound in plasma were determined using an API 2000 LC/MS/MS instrument equipped with an Agilent 1100 binary pump and an Agilent autosampler. The column was a Zorbax XDB C8 4.6*150 mm column at room temperature. The mobile phases were 0.1% formic acid (A) and acetonitrile with 0.1% formic acid (B). The gradient condition was: 5% B for 1 min, increasing to 98% B in 3 min and maintained for 2.5 min. […] The peaks were integrated using Analyst 1.1 quantitation software.
Oral bioavailability (F) was determined by comparison of the area under the concentration versus time curve (AUC) following oral administration of the conjugate or intravenous administration of the parent agent at equimolar doses.

[13] = radiolabeled competition assay in SMVT-expressing CHO cells, read-out: IC50

CC(C)(C)C(=O)OCOC(=O)NCC1(CC(=O)O)CCCCC1 [(1), 1-{[(α-Pivaloyloxymethoxy)carbonyl]aminomethyl}-1-Cyclohexane Acetic Acid]
Vmax as a % of Biotin Vmax [1]: 21%
IC50 [2, 13]: 450 µM

CC(OC(=O)NCC1(CC(=O)O)CCCCC1)OC(=O)C(C)C (stereo not drawn) [(6), 1-{[(α-Isobutanoyloxyethoxy)carbonyl]aminomethyl}-1-Cyclohexane Acetic Acid]
% of Drug Released from Conjugate after 60 min [3]: 52%
% of Drug Released from Conjugate after 60 min [4]: 23%
Vmax as a % of Biotin Vmax [1]: 46%
IC50 [2, 13]: 100 µM

CCC(=O)OC(OC(=O)NCC1(CC(=O)O)CCCCC1)C(C)C (stereo not drawn) [(9), 1-{[(α-Propanoyloxyisobutoxy)carbonyl]aminomethyl}-1-Cyclohexane Acetic Acid]
% of Drug Released from Conjugate after 60 min [5]: 65%
Vmax as a % of Biotin Vmax [1]: 19%
% of Drug Released from Conjugate after 60 min [6]: 83%
% of Drug Released from Conjugate after 60 min [7]: 69%
% of Drug Released from Conjugate after 60 min [8]: 62%
% of Drug Released from Conjugate after 60 min [9]: 25%
% of Drug Released from Conjugate after 60 min [10]: 7%

NCC1(CC(=O)O)CCCCC1 [Gabapentin, reference compound]
Vmax as a % of Biotin Vmax [1]: 0%
IC50 [2]: > 500 µM

O=C(O)CCCC[C@@H]1SC[C@@H]2NC(=O)N[C@@H]21 [biotin]
Km [11]: 5 to 20 µM
plasma concentration at the highest dose [12]: ~4000 ng/mL
bioavailability ([12]; 25 mg/kg): 100%
bioavailability ([12]; 200 mg/kg): 27%

CC(C)(CO)[C@@H](O)C(=O)NCCC(=O)[O-].[Na+] [pantothenate, sodium pantothenate]
plasma concentration at the highest dose [12]: ~4000 ng/mL
bioavailability ([12]; 25 mg/kg): 35%
bioavailability ([12]; 200 mg/kg): 10%

N-acetyl-D-Lys(ε-biotin)-D-Arg-D-Arg-D-Arg-D-Gln-D-Arg-D-Arg-D-Lys-D-Lys-D-Arg-NH2 [biotinylated decapeptide, reference compound]
specific sodium-dependent current (SMVT substrate activity) ([1]; 20 μM peptide, presence and absence of 100 mM Na+): no specific, sodium-dependent current
